Test results: patent US10550091B2, “1,4,5-substituted 1,2,3-triazole analogues as antagonists of the pregnane X receptor” (ST. JUDE CHILDREN'S RESEARCH HOSPITAL, priority 2016, dated 2020)
Where two headings read alike, the source gives them in different places.

What was measured:
[1] = system: primary human hepatocytes (PHHs); assay: midazolam metabolism in primary human hepatocytes after hPXR agonist pretreatment; assay type: cell-based; conditions: PHHs pretreated 72 hr with DMSO, 1.6 μM RIF, 0.5 or 5 μM PTX, with 10 μM test compound; then 3.3 μM MDZ 4 h
Method: Midazolam and 1-OH midazolam were from BD Gentest. Midazolam-D4 maleate (internal standard, IS) was from Cerilliant; Paclitaxel and 3′-p-Hydroxypaclitaxel were from Sigma; and 6α-hydroxy Paclitaxel was from Cayman Chemical. 100 μl of reaction medium at each different time point was collected and 200 μl of acetonitrile containing IS was added. This solution was then vigorously mixed for 10 min and centrifuged at 10,000 rpm for 10 min. Calibration and quality control samples were prepared. 5 μl of the samples was injected onto a Waters Acquity UPLC BEH C18 column (2.1×50 mm, 1.7 μm), using a Waters Acquity UPLC system. Chromatographic separation was performed by gradient elution at a constant flow rate of 1 mL/min for 15 min. The gradient consisted of 0.1% formic acid water (mobile phase A) and methanol (mobile phase B). […] Nitrogen was applied as curtain, collision and drying gas at 60 psi. Declustering potentials, entrance potential and collision energy was as follows: 120 V, 12 V and 35 V for MDZ; 70 V, 12 V and 30 V for 1-OH MDZ; and 120 V, 12 V and 37 V for IS.

[2] = system: primary human hepatocytes (PHHs); assay: paclitaxel metabolism in primary human hepatocytes; assay type: cell-based; conditions: 1 μM PTX with 10 μM test compound, 24 and 48 hr
Method: FIGS. 1A-1D show representative data for a representative disclosed compound showing that the tested compound modulates the activity of an hPXR agonist in primary human hepatocytes (“PHHs”). […] PHHs were pretreated with DMSO (0.1%), 1.6 μM of rifampicin (RIF), 0.5 μM of paclitaxel (PTX) or 5 μM of PTX, respectively, in the absence and presence of 10 μM of the test compound. After 72 hr, PHHs then received 3.3 μM of midazolam (MDZ) treatment for 4 h. The concentrations of 1′-OH MDZ (MDZ metabolite) in the media of each pretreatment condition were determined using LC/MS/MS as described in the Examples. […] PHHs were also treated with 1 μM of PTX in the absence and presence of 10 μM of the test compound, and then the concentrations of major PTX metabolites, 3-OH PTX (by CYP3A4) and 6α-OH PTX (by CYP2C8), were determined using LC/MS/MS at 24 hr and 48 hr of treatment, respectively. The concentrations of 3-OH PTX and 6α-OH PTX are shown in FIGS. 1B and 1C, respectively.
Midazolam and 1-OH midazolam were from BD Gentest. Midazolam-D4 maleate (internal standard, IS) was from Cerilliant; Paclitaxel and 3′-p-Hydroxypaclitaxel were from Sigma; and 6α-hydroxy Paclitaxel was from Cayman Chemical. 100 μl of reaction medium at each different time point was collected and 200 μl of acetonitrile containing IS was added. […] Calibration and quality control samples were prepared. […]

[3] = system: LS 180 cells stably overexpressed hPXR; assay: sensitization of colon cancer cells to anti-cancer drugs (viability); assay type: cell-based, human; conditions: absence vs presence of 10 μM test compound, 96 h
Method: FIGS. 2A-2D show representative data for a representative disclosed compound showing that the tested compound sensitizes colon cancer cells to representative anti-cancer drugs. […] LS 180 cells stably overexpressed hPXR were treated with serial dilutions of paclitaxel (PTX; see FIG. 2A), docetaxel (TXT; see FIG. 2B), vinblastine (VBL; see FIG. 2C), or vincristine (VCR; see FIG. 2D) in the absence and presence of 10 μM of the test compound as indicated for 96 h. Values of the viability of compound-treated cells were expressed as a percentage of that of DMSO-treated cells, and drug concentration is expressed in a log scale. Data at each point represents mean±SEM from quadruplicate measurements.

hPXR [4] = assay: liver CYP3A expression in hPXR-tg mice; assay type: in vivo, mouse; conditions: RIF 10 mg/kg plus test compound 200 mg/kg, 72 h
Method: Briefly, mouse liver Cyp3a11 mRNA was analyzed by real-time PCR in hPXR-tg mice treated with vehicle control (Vehicle), RIF (10 mg/kg) or RIF (10 mg/kg) plus test compound (200 mg/kg) for 72 h. Each data point represents the level of Cyp3a11 mRNA (FIG. 3A) or protein (FIG. 3B) in an individual mouse; lines indicate the mean value for 3-7 mice per group.
hPXR-tg mice were generated previously (Xie et al., 2000). Five mice in each group were dosed orally with vehicle control or 10 mg/kg RIF, every 24 h for three days. Eight hours after the last dose, the animals were euthanized by C02 and liver tissues were harvested. A piece of each liver was preserved in RNAlater solution (Invitrogen) at 4° C. for mRNA isolation. The remaining tissue was instantly frozen in liquid nitrogen and stored at −80° C. for total protein extraction. […]

CYP3A4 promoter reporter = CYP3A4 promoter reporter activity in hPXR-CYP3A4-luc reporter mice (bioluminescence imaging); assay type: in vivo, mouse; conditions: RIF 10 mg/kg plus test compound 150 mg/kg every 24 h for 2 days; imaging 10 h after last treatment
Method: Individual mouse received 3 rounds of sequential treatment of vehicle control (Vehicle), RIF (10 mg/kg) and RIF (10 mg/kg) plus the test compound (150 mg/kg) every 24 h for 2 days, respectively, with a washout period of 72-hour between two rounds of treatment. The luciferase activity in these reporter mice was recorded by bioluminescence imaging 10 h after the last treatment of each round, and the induction of CYP3A4 promoter reporter activity was calculated as described in Examples. Each data point represents the induction of CYP3A4 promoter reporter activity by the treatment in an individual mouse, and dos lines indicate the CYP3A4 promoter reporter activity change in individual mouse after following round of treatment. p values are indicated between the two treatment compared by paired t test.
10 hours after the last treatment of each round, the mice were imaged as described above. Uniform regions of interest were drawn around the liver, and total photon flux was analyzed with Living Image 3.2 software (Xenogen). The induction of CYP3A4-luc reporter activity was calculated using the imaging from the same mouse as follows: induction rate=total photon flux (after treatment)/total photon flux (before treatment).

hPXR-tg mice = assay: loss of righting reflex (LORR) assay in hPXR transgenic mice; assay type: in vivo, mouse; conditions: RIF 10 mg/kg plus test compound 200 mg/kg every 24 h for three days
Method: Loss of righting reflex (LORR) duration was recorded as described in Examples to measure metabolism of the anesthetic ([…]) in hPXR-tg, mice before and after treatment with vehicle, RIF, and RIF plus the test compound as indicated. Each data point represents LORR duration in an individual mouse; lines indicate LORR duration change in individual mouse before and after treatment. P values indicate comparison of values by paired t test.
Mice were intraperitoneally injected with 250 mg/kg of 2,2,2-tribromoethanol, which is metabolically cleared only via mouse CYP3A11. After the mice lost their righting reflex, they were placed on their backs under a heat lamp. The duration of LORR was measured as the time from the start of LORR to recovery (i.e., when mice could right themselves after being placed on their backs twice within 1 min). A baseline LORR duration was established for each mouse at the administered dose of 2,2,2-tribromoethanol. […] The paired Student's t-test was used to compare LORR duration between baseline and after treatment. A P value <0.05 was considered to indicate a significant difference between compared groups.

HepG2 cells = assay: HepG2 cytotoxicity assay (CellTiter Glo); assay type: cell-based; conditions: Homo sapiens, HepG2, 72 h, read-out: IC50 (cyto)
Source text: The luminescence signal was detected using an Envision plate reader (PerkinElmer Life Sciences).

[5] = biological target: human vitamin D receptor (hVDR) (Homo sapiens, UniProt P11473); assay: human vitamin D receptor (hVDR) transactivation assay; assay type: cell-based
Method: Cells were maintained by following manufacturer's instruction. Briefly, VDR cells were maintained in matrigel-coated tissue culture flasks in DMEM supplemented with 10% dialyzed FBS, 0.1 mM non-essential amino acids, 1 mM sodium pyruvate, 25 mM HEPES, 80 μg/ml of hygromycin B, 80 μg/ml of zeocin, 100 units/ml penicillin and 100 μg/ml streptomycin. […] Assay medium containing DMSO without cells serves as background control.

[6] = biological target: human glucocorticoid receptor (hGR) (Homo sapiens, UniProt P04150); assay: human glucocorticoid receptor (hGR) transactivation assay; assay type: cell-based; conditions: Anta = compound exhibited antagonism; read-out: GR (Anta)
[7] = biological target: human retinoid X receptor alpha (hRXRα) (Homo sapiens, UniProt P19793); assay: human retinoid X receptor alpha (hRXRα) transactivation assay; assay type: cell-based; conditions: Anta = compound exhibited antagonism; read-out: RXRα (Anta)
[8] = biological target: human retinoid X receptor beta (hRXRβ) (Homo sapiens, UniProt P28702); assay: human retinoid X receptor beta (hRXRβ) transactivation assay; assay type: cell-based; conditions: Anta = compound exhibited antagonism; read-out: RXRβ (Anta)
Method: Cells were maintained by following manufacturer's instruction. Briefly, RXRβ cells were maintained in DMEM supplemented with 10% dialyzed FBS, 0.1 mM non-essential amino acids, 25 mM HEPES, 100 μg/ml of hygromycin B, 100 μg/ml of zeocin, 100 units/ml penicillin and 100 μg/ml streptomycin.

[9] = biological target: human Farnesoid X receptor (hFXR) (Homo sapiens, UniProt Q96RI1); assay: human Farnesoid X receptor (hFXR) transactivation assay; assay type: cell-based; conditions: Anta = compound exhibited antagonism; read-out: FXR (Anta)
Method: Cells were maintained by following manufacturer's instruction. Briefly, FXR cells were maintained in DMEM supplemented with 10% dialyzed FBS, 0.1 mM non-essential amino acids, 25 mM HEPES, 100 μg/ml of hygromycin B, 100 μg/ml of zeocin, 100 units/ml penicillin and 100 μg/ml streptomycin.

[10] = biological target: human Liver X receptor alpha (hLXRα) (Homo sapiens, UniProt Q13133); assay: human Liver X receptor alpha (hLXRα) transactivation assay; assay type: cell-based; conditions: Anta = compound exhibited antagonism; read-out: LXRα (Anta)
[11] = biological target: human Liver X receptor beta (hLXRβ) (Homo sapiens, UniProt P55055); assay: human Liver X receptor beta (hLXRβ) transactivation assay; assay type: cell-based; conditions: Anta = compound exhibited antagonism; read-out: LXRβ (Anta)
[12] = biological target: human peroxisome proliferator-activated receptor gamma (PPARγ) (Homo sapiens, UniProt P37231); assay: human peroxisome proliferator-activated receptor gamma (PPARγ) transactivation assay; assay type: cell-based; conditions: Anta = compound exhibited antagonism; read-out: PPARγ (Anta)
Method: Cells were maintained by following manufacturer's instruction. Briefly, PPARγ cells were maintained in matrigel-coated tissue culture flasks in DMEM supplemented with 10% dialyzed FBS, 0.1 mM non-essential amino acids, 1 mM sodium pyruvate, 25 mM HEPES, 100 μg/ml of hygromycin B, 500 μg/ml of geneticin, 100 units/ml penicillin and 100 μg/ml streptomycin. […] Assay medium containing DMSO without cells serves as background control.

hPXR [13] = biological target: hPXR (Homo sapiens (Human), UniProt O75469); assay: hPXR transactivation assays (agonistic and antagonistic), HepG2 cells with CYP3A4-luciferase reporter; conditions: read-out: IC50 (antag); antagonistic assay, combined with 5 μM rifampicin, 24 h; NA = not active
hPXR (Homo sapiens (Human), UniProt O75469), sequence (O75469 whole entry): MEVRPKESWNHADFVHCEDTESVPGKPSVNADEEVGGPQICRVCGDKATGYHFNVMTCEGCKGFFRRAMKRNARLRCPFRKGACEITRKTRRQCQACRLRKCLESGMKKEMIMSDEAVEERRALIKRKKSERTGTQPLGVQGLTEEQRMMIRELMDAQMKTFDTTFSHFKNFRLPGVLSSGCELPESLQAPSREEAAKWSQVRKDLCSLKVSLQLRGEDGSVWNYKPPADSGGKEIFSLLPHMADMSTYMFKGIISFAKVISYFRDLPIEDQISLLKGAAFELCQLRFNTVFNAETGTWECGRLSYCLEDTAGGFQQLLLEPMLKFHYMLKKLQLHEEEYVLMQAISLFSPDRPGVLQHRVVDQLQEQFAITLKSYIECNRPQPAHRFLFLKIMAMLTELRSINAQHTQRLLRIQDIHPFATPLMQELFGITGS
Method: The hPXR transactivation assays (PXR agonistic and antagonistic assays) were performed in the HepG2 cells stably expressing FLAG-hPXR and CYP3A4-luciferase reporter. […] The luminescence signal was detected using an Envision plate reader (PerkinElmer Life Sciences).

human Farnesoid X receptor (hFXR), sequence (Q96RI1 whole entry, looked up): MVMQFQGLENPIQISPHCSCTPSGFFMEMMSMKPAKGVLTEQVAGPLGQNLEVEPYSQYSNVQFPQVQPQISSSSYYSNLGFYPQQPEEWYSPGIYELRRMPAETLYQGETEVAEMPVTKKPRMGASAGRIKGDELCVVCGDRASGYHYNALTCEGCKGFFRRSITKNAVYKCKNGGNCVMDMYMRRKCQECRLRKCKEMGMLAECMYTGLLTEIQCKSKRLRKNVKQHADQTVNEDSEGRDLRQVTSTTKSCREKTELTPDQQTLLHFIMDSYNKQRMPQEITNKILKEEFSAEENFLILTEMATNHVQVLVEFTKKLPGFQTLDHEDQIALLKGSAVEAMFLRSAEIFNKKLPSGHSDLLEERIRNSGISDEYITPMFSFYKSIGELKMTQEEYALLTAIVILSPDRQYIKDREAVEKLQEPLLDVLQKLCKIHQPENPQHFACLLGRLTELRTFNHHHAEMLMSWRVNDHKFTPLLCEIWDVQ
human glucocorticoid receptor (hGR), sequence (P04150 whole entry, looked up): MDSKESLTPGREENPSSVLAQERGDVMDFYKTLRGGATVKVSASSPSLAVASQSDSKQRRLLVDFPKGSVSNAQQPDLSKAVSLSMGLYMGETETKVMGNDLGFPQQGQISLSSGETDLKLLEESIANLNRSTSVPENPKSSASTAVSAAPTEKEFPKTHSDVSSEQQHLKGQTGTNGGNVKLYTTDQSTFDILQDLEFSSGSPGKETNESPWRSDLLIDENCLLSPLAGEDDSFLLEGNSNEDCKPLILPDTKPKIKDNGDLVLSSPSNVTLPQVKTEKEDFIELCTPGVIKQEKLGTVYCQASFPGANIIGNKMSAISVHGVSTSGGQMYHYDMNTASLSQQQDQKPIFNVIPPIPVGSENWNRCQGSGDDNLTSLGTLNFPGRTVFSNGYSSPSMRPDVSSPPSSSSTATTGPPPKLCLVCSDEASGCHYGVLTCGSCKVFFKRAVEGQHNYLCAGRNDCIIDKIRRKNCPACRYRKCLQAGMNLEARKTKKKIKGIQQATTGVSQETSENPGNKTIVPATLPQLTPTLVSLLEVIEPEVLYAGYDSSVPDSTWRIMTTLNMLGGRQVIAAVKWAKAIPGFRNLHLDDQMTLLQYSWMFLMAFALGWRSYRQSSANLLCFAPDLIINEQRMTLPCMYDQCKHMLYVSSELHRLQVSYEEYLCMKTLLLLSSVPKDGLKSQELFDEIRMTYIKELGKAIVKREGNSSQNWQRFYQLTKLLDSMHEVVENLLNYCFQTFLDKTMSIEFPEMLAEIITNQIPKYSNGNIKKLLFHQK
human peroxisome proliferator-activated receptor gamma (PPARγ), sequence (P37231 whole entry, looked up): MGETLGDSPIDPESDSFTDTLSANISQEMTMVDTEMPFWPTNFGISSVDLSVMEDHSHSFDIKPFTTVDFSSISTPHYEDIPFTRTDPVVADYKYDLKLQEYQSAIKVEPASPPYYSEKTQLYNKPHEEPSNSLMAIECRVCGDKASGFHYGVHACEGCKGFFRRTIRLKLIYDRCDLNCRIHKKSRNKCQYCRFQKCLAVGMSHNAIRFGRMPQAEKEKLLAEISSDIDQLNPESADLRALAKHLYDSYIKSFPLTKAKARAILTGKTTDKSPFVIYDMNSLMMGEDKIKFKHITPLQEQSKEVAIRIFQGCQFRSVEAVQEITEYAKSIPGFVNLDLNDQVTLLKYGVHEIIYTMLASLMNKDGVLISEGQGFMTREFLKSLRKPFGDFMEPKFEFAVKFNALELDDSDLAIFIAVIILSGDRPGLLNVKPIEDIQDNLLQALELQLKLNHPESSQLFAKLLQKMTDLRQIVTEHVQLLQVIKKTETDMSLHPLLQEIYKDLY
human retinoid X receptor alpha (hRXRα), sequence (P19793 whole entry, looked up): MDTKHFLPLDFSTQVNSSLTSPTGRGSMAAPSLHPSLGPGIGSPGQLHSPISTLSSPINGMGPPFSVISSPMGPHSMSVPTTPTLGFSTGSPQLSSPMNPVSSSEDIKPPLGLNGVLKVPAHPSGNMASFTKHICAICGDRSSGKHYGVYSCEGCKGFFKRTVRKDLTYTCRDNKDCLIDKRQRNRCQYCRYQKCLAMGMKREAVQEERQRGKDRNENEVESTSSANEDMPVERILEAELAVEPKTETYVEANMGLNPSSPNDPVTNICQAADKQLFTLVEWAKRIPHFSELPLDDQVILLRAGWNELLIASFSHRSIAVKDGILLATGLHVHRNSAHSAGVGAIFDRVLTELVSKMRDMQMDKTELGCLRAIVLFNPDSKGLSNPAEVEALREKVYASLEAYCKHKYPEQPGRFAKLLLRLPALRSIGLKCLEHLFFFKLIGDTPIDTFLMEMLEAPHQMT
human vitamin D receptor (hVDR), sequence (P11473 whole entry, looked up): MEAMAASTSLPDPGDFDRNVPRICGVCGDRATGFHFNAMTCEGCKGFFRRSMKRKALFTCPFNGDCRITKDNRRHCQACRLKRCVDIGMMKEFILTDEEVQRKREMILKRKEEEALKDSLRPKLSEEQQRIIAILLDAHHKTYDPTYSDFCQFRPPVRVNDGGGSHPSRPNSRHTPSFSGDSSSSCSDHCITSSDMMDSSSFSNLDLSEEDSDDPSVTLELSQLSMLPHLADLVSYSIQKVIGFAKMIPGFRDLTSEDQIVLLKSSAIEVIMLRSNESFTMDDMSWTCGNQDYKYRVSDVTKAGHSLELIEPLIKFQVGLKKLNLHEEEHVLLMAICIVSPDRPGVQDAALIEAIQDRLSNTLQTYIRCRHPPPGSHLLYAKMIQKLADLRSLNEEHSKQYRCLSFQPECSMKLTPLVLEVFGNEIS
human retinoid X receptor beta (hRXRβ), sequence (P28702 whole entry, looked up): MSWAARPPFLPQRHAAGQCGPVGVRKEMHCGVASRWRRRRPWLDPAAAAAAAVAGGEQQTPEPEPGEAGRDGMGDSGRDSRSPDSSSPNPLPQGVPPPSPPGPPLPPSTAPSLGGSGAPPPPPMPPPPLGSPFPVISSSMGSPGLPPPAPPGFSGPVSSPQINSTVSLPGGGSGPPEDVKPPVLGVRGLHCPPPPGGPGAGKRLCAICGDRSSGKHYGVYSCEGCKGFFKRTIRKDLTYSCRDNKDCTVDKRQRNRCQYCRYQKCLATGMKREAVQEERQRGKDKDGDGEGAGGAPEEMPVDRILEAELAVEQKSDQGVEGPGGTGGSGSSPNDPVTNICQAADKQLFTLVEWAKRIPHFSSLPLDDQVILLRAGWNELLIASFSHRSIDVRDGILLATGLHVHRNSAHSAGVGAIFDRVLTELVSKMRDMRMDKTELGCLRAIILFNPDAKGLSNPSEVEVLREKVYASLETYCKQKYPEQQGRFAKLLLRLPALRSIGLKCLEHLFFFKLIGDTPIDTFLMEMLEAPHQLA
human Liver X receptor beta (hLXRβ), sequence (P55055 whole entry, looked up): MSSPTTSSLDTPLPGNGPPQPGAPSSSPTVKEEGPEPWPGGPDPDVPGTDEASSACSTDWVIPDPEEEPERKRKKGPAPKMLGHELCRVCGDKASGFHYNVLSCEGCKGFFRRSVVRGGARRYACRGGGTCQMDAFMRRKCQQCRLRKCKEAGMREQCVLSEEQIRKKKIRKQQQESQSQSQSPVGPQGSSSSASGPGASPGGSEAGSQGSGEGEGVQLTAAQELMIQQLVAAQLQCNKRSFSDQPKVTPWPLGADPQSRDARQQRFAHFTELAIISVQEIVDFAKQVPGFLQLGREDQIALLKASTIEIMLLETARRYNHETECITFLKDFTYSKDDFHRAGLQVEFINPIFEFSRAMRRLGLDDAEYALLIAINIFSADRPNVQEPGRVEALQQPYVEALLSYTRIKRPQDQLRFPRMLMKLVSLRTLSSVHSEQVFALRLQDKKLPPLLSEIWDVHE
human Liver X receptor alpha (hLXRα), sequence (Q13133 whole entry, looked up): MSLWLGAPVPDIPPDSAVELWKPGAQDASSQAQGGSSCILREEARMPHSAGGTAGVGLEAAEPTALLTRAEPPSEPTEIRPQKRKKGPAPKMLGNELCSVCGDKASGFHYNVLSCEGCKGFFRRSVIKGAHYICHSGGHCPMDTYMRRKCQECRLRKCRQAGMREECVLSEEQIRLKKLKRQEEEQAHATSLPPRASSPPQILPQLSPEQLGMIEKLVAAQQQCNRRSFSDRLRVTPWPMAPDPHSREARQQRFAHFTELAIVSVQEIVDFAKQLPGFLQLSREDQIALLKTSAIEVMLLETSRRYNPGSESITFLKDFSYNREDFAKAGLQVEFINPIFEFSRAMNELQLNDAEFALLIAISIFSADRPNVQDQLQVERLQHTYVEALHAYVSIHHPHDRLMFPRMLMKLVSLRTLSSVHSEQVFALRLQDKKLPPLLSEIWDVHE

Structure (SMILES)	metabolism of MDZ (1′-OH MDZ in the media) [1]	metabolism of PTX to 3-OH PTX (by CYP3A4) [2]	metabolism of PTX to 6α-OH PTX (by CYP2C8) [2]	apparent IC50 for PTX, TXT, VBL, or VCR [3]	hPXR-mediated increase in CYP3A expression (liver Cyp3a11 mRNA, CYP3A protein) (hPXR [4])	RIF-induced expression of the reporter under the control of the CYP3A4 promoter (CYP3A4 promoter reporter)	RIF-induced metabolism of the anesthetic, by LORR duration (hPXR-tg mice)	IC50 (HepG2 cells; NA = not active)	IC50 [5]	IC50 [6]	IC50 [7]	IC50 [8]	IC50 [9]	IC50 [10]	IC50 [11]	IC50 [12]	IC50 (HepG2 cells)	IC50 (hPXR [13])
COc1ccc(OC)c(-n2nnc(S(=O)(=O)c3ccc(C(C)(C)C)cc3)c2C)c1 [4-((4-(tert-butyl)phenyl)sulfonyl)-1-(2,5-dimethoxyphenyl)-5-methyl-1H-1,2,3-triazole]	essentially blocked	effectively blocked	effectively blocked	significantly higher in the absence of the test compound	inhibits the hPXR-mediated increase in CYP3A expression	significantly reduced	significantly inhibited											
COc1ccc(OC)c(-n2nnc(S(=O)(=O)c3ccc(C(C)(C)C)cc3)c2CCl)c1 [LC-64, 4-((4-(tert-butyl)phenyl)sulfonyl)-5-(chloromethyl)-1-(2,5-dimethoxyphenyl)-1H-1,2,3-triazole]								7.9 µM	7.3 µM	5.6 µM	5.8 µM	4.1 µM	6.3 µM	6.5 µM	4.1 µM	1.5 µM		
COc1ccc(OC)c(-c2ncc(S(=O)(=O)c3ccc(C(C)(C)C)cc3)n2C)c1 [LC-70, 5-((4-(tert-butyl)phenyl)sulfonyl)-2-(2,5-dimethoxyphenyl)-1-methyl-1H-imidazole]								15.3 µM		20.4 µM	16.1 µM		14.3 µM			28.3 µM		
COc1ccc(O)c(-n2nnc(S(=O)(=O)c3ccc(C(C)(C)C)cc3)c2C)c1 [LC-86, 2-(4-((4-(tert-butyl)phenyl)sulfonyl)-5-methyl-1H-1,2,3-triazol-1-yl)-4-methoxyphenol]									24.2 µM	21.4 µM	20.6 µM	17.9 µM	21.9 µM	29.8 µM	18.9 µM	11.8 µM	26.1 µM	0.18 µM
